The values that follow come from patent US20260176289A1, “SMALL MOLECULE INHIBITORS OF KRAS PROTEINS” (Merck Sharp & Dohme LLC, priority 2022, published 2026).

pIC50: −log10 of the molar value. Read-outs that look alike come from different tables or passages of the source.

Assay [1] addresses KRAS-G12V (Homo sapiens, UniProt P01116, G12V). The assay is described as follows: SOS-catalyzed nucleotide exchange assay (Procedure A, TR-FRET), KRAS-G12V. The conditions noted are these: nucleotide exchange, read-out: KRAS G12V GNE IC50. In kind it is biochemical. In short, it runs like this:
(§1)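 TR-FRET 520/495 nm ratio read after SOS-driven exchange of Bodipy-GDP for unlabeled GTP (3 mM) on biotinylated RAS bound to Tb-streptavidin. There was a 60 min compound preincubation, RT. Final RAS/SOS and reaction times: G12C 3 nM/40 nM; WT 1 nM/40 nM; NRAS 1.25 nM/40 nM, each 60 min. G12V was 1.25 nM/160 nM, 90 min.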

Assay [2] has as its system AsPC-1 cells. Briefly: Cellular phospho-ERK assay, AsPC-1 cells (homozygous KRAS-G12D). In kind it is cell-based. Conditions: Homo sapiens, ASPC1, 2 h, read-out: AsPC1 pERK IC50. In a few lines:
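ERK phosphorylation relative to total ERK is the endpoint, detected by AlphaScreen-based SureFire multiplex following a 2-hour treatment at 37 °C. Compounds are titrated 1:3 over ten points from 30 μM.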

Assay [3] concerns the target KRAS-G12D (Homo sapiens, UniProt P01116, G12D). Briefly: SOS-catalyzed nucleotide exchange assay (Procedure A, TR-FRET), KRAS-G12D. In kind it is biochemical. Conditions: nucleotide exchange, read-out: KRAS G12D GNE IC50. In a few lines:
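Signal ratio (520/495 nm, excitation 340 nm) reports Bodipy-GDP retention on biotinylated RAS after SOS-catalyzed exchange with 3 mM GTP. SOS was 40 nM, except 160 nM for G12V. Room-temperature exchange lasted 60 min (90 min for G12V), following a 60 min compound preincubation.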
Background: In TR-FRET formats the signal depends on donor and acceptor labels being close together.

The target of assay [4] is KRAS-WT (Homo sapiens, UniProt P01116). Briefly: SOS-catalyzed nucleotide exchange assay (Procedure A, TR-FRET), KRAS-WT. The assay is classed as biochemical. Conditions: nucleotide exchange, read-out: KRAS WT GNE IC50. In a few lines:
as §1

As a reminder, the pIC50 is −log10 of the IC50, conventionally taken in molar units.

Chain of KRAS-G12D (P01116 with tags, fused parts or gaps isoform P01116-2 G12D): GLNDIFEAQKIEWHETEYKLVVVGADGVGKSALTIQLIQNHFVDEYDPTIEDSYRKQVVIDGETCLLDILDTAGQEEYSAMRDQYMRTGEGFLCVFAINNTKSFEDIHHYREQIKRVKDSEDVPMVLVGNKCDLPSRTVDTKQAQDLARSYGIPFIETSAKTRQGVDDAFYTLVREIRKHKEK
Chain of KRAS-G12V (P01116 with tags, fused parts or gaps isoform P01116-2 G12V): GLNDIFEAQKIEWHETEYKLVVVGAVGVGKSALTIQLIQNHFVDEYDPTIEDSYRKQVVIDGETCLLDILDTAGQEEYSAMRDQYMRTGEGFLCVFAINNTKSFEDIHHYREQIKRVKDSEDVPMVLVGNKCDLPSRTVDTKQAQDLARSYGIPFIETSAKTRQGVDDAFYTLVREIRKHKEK
Chain of KRAS-WT (P01116 with tags, fused parts or gaps isoform P01116-2): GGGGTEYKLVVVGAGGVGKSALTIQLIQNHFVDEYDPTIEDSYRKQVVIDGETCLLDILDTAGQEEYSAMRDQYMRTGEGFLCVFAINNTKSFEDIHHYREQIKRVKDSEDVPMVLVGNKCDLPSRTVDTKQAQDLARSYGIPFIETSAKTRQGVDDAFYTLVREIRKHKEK

As to `C[C@@]1(O)COCCN(c2nc(OC[C@@]34CCCN3C[C@H](F)C4)nc3sc4c(-c5cc(O)cc(Cl)c5C5CC5)nccc4c23)C1` [Ex-124, (S)-4-(8-(3-chloro-2-cyclopropyl-5-hydroxyphenyl)-2-(((2R,7aS)-2-fluorotetrahydro-1H-pyrrolizin-7a(5H)-yl)methoxy)pyri-do[4′,3′:4,5]thieno[2,3-d]pyrimidin-4-yl)-6-methyl-1,4-oxazepan-6-ol], the pIC50 in assay [1] is 7.62; in assay [2] (KRAS-G12D, 2 hours), 6.82; in assay [3], 7.96; in assay [4], 7.40.

As for `Cc1cc2[nH]ncc2c(-c2nccc3c2sc2nc(OC[C@@]45CCCN4C[C@H](F)C5)nc(N4CCOC[C@@](C)(O)C4)c23)c1SC(F)(F)F` [Ex-45, (6S)-4-(2-(((2R,7aS)-2-fluorotetrahydro-1H-pyrrolizin-7a(5H)-yl)methoxy)-8-(6-methyl-5-((trifluoromethyl)thio)-1H-indazol-4-yl)pyrido[4′,3′:4,5]thieno [2,3-d]pyrimidin-4-yl)-6-methyl-1,4-oxazepan-6-ol], the pIC50 was 6.82 in assay [1]; 5.96 in assay [2] (KRAS-G12D, 2 hours); 6.78 in assay [3]; 6.43 in assay [4].

For the molecule `CN1CCC[C@@H]1COc1nc(N2CCOC[C@@](C)(O)C2)c2c(n1)sc1c(-c3c(C4CC4)c(C(F)(F)F)cc4[nH]ncc34)nccc12` [Ex-81, (6S)-4-(8-(5-cyclopropyl-6-(trifluoromethyl)-1H-indazol-4-yl)-2-(((R)-1-methylpyrrolidin-2-yl)methoxy)pyrido[4′,3′:4,5]thi-eno[2,3-d]pyrimidin-4-yl)-6-methyl-1,4-oxazepan-6-ol], the negative logarithm of the IC50 (pIC50) in assay [1] was 7.06; in assay [2] (KRAS-G12D, 2 hours), 5.95; in assay [3], 7.07; in assay [4], 6.78.

With `C[C@@H]1CCN1C[C@@]1(COc2nc(N3CCOC[C@@](C)(O)C3)c3c(n2)sc2c(-c4c(C5(F)CC5)c(Cl)cc5[nH]ncc45)nccc23)CC1(F)F` [Ex-261, (6S)-4-(8-(6-chloro-5-(1-fluorocyclopropyl)-1H-indazol-4-yl)-2-(((R)-2,2-difluoro-1-(((R)-2-methylazetidin-1-yl)methyl)cyclopropyl)metho-xy)pyrido[4′,3′:4,5]thieno[2,3-d]pyrimidin-4-yl)-6-methyl-1,4-oxazepan-6-ol], the pIC50 was 7.23 in assay [1], 6.43 in assay [2] (2 hours compound incubation), 7.77 in assay [3] and 7.09 in assay [4].

As to `C[C@@]1(O)COCCN(c2nc(OC[C@@]34CCCN3C[C@H](F)C4)nc3sc4c(-c5c(-c6cc[nH]c6)c(Cl)cc6[nH]ncc56)nccc4c23)C1` [Ex-73, (6S)-4-(8-(6-chloro-5-(1H-pyrrol-3-yl)-1H-indazol-4-yl)-2-(((2R,7aS)-2-fluorotetrahydro-1H-pyrrolizin-7a(5H)-yl)methoxy)pyrido[4′,3′:4,5]thi-eno[2,3-d]pyrimidin-4-yl)-6-methyl-1,4-oxazepan-6-ol], the pIC50 in assay [1] was 7.28; in assay [2] (KRAS-G12D, 2 hours), 5.98; in assay [3] it was 8.01; in assay [4], 7.22.

Consider `CN(C)C1CC(F)(F)C2C[C@]12COc1nc(N2CCOC[C@@](C)(O)C2)c2c(n1)sc1c(-c3c(C4(F)CC4)c(Cl)cc4[nH]ncc34)nccc12` (stereo partly drawn) [Ex-270, (6S)-4-(8-(6-chloro-5-(1-fluorocyclopropyl)-1H-indazol-4-yl)-2-((2-(dimethylamino)-4,4-difluorobicy-clo[3.1.0]hexan-1-yl)methoxy)pyri-do[4′,3′:4,5]thi-eno[2,3-d]pyrimidin-4-yl)-6-methyl-1,4-oxazepan-6-ol], for which the pIC50 in assay [1] is 7.51; in assay [2] (KRAS-G12D, 2 hours) it was 6.85; in assay [3] it was 8.06; in assay [4] it was 7.55.

With `C[C@@]1(O)COCCN(c2nc(OC[C@@]34CCCN3C[C@H](F)C4)nc3sc4c(-c5cccc6c5CC5CC65)nccc4c23)C1` (single isomer, unassigned) [Ex-119], the pIC50 in assay [1] was 6.81; in assay [2] (KRAS-G12D, 2 hours), 5.67; in assay [3] it was 6.64; in assay [4], 6.18.
